Tests used:
[1] = system: BT-549 (Breast Carcinoma); assay: combination Emax (second highest fraction inhibited in the dose matrix, 72 h); higher = more inhibition; extreme values may be limits of the assay
Summary of the method: (§1)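 After 24 hours at 37°C and 5% CO2 in 1536-well plates, cells in DMEM/F12 or RPMI plus 10% FBS received two-drug dose matrices for 72 hours. Viability came from CellTiter-Glo 2.0 luminescence and was scaled as inhibition, anchored at 0 by vehicle wells and at 1 by blank wells. Combination Emax is taken as the second-highest inhibition in the matrix, and Bliss excess as the observed combination effect less EA + EB − EA·EB, with EA and EB the single-agent effects.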

[2] = system: MLMA (Other Blood Carcinomas); assay: as above
Summary of the method: as §1

UACC-62 (Melanoma) = assay: as above
Summary of the method: as §1

YH-13 (Glioblastoma) [3] = assay: as above
Summary of the method: as §1

[4] = system: NCI-H358 (Lung Adenocarcinoma); assay: as above
Summary of the method: as §1

[5] = system: RF-48 (B-Cell Non-Hodgkin's Lymphoma); assay: as above
Summary of the method: as §1

D-263MG (Glioblastoma) = assay: as above
Summary of the method: as §1

[6] = system: LU-65 (Non-Small Cell Lung Carcinoma); assay: as above
Summary of the method: as §1

[7] = system: MIA-PaCa-2 (Pancreatic Carcinoma); assay: as above
Summary of the method: as §1

TK10 (Kidney Carcinoma) = assay: as above
Summary of the method: as §1

[8] = system: AMO-1 (Plasma Cell Myeloma); assay: as above
Summary of the method: as §1

NB69 (Neuroblastoma) [9] = assay: as above
Summary of the method: as §1

ACHN (Kidney Carcinoma) [10] = assay: as above
Summary of the method: as §1

EW-24 (Ewing's Sarcoma) = assay: as above
Summary of the method: as §1

[11] = system: EoL-1-cell (Acute Myeloid Leukemia); assay: as above
Summary of the method: as §1

YH-13 (Glioblastoma) [12] = assay: Bliss excess, mean over the matrix (fraction); higher = more synergy
Summary of the method: as §1

[13] = system: KARPAS-299 (T-Cell Non-Hodgkin's Lymphoma); assay: as above
Summary of the method: as §1

[14] = system: NCI-H727 (Other Solid Carcinomas); assay: as above
Summary of the method: as §1

NB69 (Neuroblastoma) [15] = assay: as above
Summary of the method: as §1

ACHN (Kidney Carcinoma) [16] = assay: as above
Summary of the method: as §1
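For Bliss excess, mean over the matrix in this document: after 72 h of two-drug dosing.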

Row | SMILES | combination Emax [1] | combination Emax [2] | combination Emax (UACC-62 (Melanoma)) | combination Emax (YH-13 (Glioblastoma) [3]) | combination Emax [4] | combination Emax [5] | combination Emax (D-263MG (Glioblastoma)) | combination Emax [6] | combination Emax [7] | combination Emax (TK10 (Kidney Carcinoma)) | combination Emax [8] | combination Emax (NB69 (Neuroblastoma) [9]) | combination Emax (ACHN (Kidney Carcinoma) [10]) | combination Emax (EW-24 (Ewing's Sarcoma)) | combination Emax [11] | Bliss excess (YH-13 (Glioblastoma) [12]) | Bliss excess [13] | Bliss excess [14] | Bliss excess (NB69 (Neuroblastoma) [15]) | Bliss excess (ACHN (Kidney Carcinoma) [16])
1 | Cc1cc2ncnn2cc1Nc1ncc2c(n1)n(C1CCOCC1)c(=O)n2C [AZD7648] + COc1cc([C@@H]2c3cc4c(cc3[C@@H](O[C@@H]3O[C@@H]5CO[C@@H](C)O[C@H]5[C@H](O)[C@H]3O)[C@H]3COC(=O)[C@H]23)OCO4)cc(OC)c1O [Etoposide] (first compound max 10 µM, 7x7, partner max 10 µM) | 0.736 | 0.816 | 0.642 | 0.641 | 0.628 | 0.755 | 0.618 | 0.897 | 0.945 | 0.592 | 0.942 | 0.946 | 0.772 | 0.714 | 1 | 0.0877 | 0.0522 | -0.0041 | -0.0239 | 0.0535
2 | Cc1cc2ncnn2cc1Nc1ncc2c(n1)n(C1CCOCC1)c(=O)n2C [AZD7648] + C[C@@H]1COCCN1C2=NC(=NC(=C2)C3(CC3)[S@](=N)(=O)C)C4=C5C=CNC5=NC=C4 [AZD6738] (first compound max 10 µM, 7x7, partner max 10 µM) | 0.441 | 0.67 | 0.624 | 0.656 | 0.606 | 0.528 | 0.647 | 0.656 | 0.592 | 0.753 | 0.862 | 0.865 | 0.888 | 0.61 | 0.967 | 0.0821 | -0.0183 | 0.0381 | 0.0172 | -0.0316
3 | Cc1cc2ncnn2cc1Nc1ncc2c(n1)n(C1CCOCC1)c(=O)n2C [AZD7648] + O=C(c1cc(Cc2n[nH]c(=O)c3ccccc23)ccc1F)N1CCN(C(=O)C2CC2)CC1 [Olaparib] (first compound max 10 µM, 7x7, partner max 10 µM) | 0.18 | 0.279 | 0.253 | 0.16 | 0.279 | 0.322 | 0.094 | 0.312 | 0.22 | 0.234 | 0.196 | 0.541 | 0.211 | 0.214 | 0.42 | -0.0272 | -0.0098 | -0.0641 | -0.0397 | -0.0243
4 | Cc1nc(Nc2ncc(C(=O)Nc3c(C)cccc3Cl)s2)cc(N2CCN(CCO)CC2)n1 [Dasatinib] + CC(=O)Nc1cccc(-n2c(=O)n(C3CC3)c(=O)c3c(Nc4ccc(I)cc4F)n(C)c(=O)c(C)c32)c1 [Trametinib] (first compound max 2 µM, 7x7, partner max 1 µM) | 0.436 | 0.675 | 0.888 | 0.784 | 0.69 | 0.414 | 0.761 | 0.564 | 0.894 | 0.766 | 0.405 | 1 | 0.749 | 0.171 | 1 | -0.0698 | 0.0122 | -0.0357 | 0.0099 | -0.0707
5 | COc1cc2ncnc(Nc3ccc(F)c(Cl)c3)c2cc1OCCCN1CCOCC1 [Gefitinib] + CC(C)n1c(=O)n(C)c2cnc3cc(F)c(-c4ccc(OCCCN5CCCCC5)nc4)cc3c21 [AZD1390] (first compound max 10 µM, 7x7, partner max 0.3 µM) | 0.0893 | 0.33 | 0.248 | 0.145 | 0.536 | 0.244 | 0.132 | 0.268 | 0.208 | 0.445 | 0.323 | 0.369 | 0.551 | 0.189 | 0.571 | -0.0848 | -0.0218 | -0.108 | -0.0615 | -0.0829
6 | COc1cc2c(cc1OCCCCCOc1cc3c(cc1OC)C(=O)N1C=C(C)C[C@H]1C=N3)N=C[C@@H]1CC(C)=CN1C2=O [SG3199] + O=C(c1cc(Cc2n[nH]c(=O)c3ccccc23)ccc1F)N1CCN(C(=O)C2CC2)CC1 [Olaparib] (first compound max 0.001 µM, 7x7, partner max 10 µM) | 0.095 | 0.164 | 0.0735 | 0.16 | 0.0868 | 0.266 | 0.0915 | 0.24 | 0.168 | 0.0517 | 0.0932 | 0.444 | 0.0891 | 0.196 | 0.319 | -0.0282 | -0.0122 | -0.0726 | -0.0102 | -0.0192
7 | N#Cc1cnc(Nc2cc(NC[C@H]3CNCCO3)c(C(F)(F)F)cn2)cn1 [SRA737] + C=CCn1c(=O)c2cnc(Nc3ccc(N4CCN(C)CC4)cc3)nc2n1-c1cccc(C(C)(C)O)n1 [AZD1775] (first compound max 10 µM, partner max 1 µM) | 0.804 | 0.826 | 0.304 | 0.812 | 0.763 | 0.467 | 0.575 | 0.887 | 0.911 | 0.653 | 0.967 | 0.969 | 0.865 | 0.639 | 1 | 0.0804 | 0.0776 | 0.0694 | 0.163 | -0.0285
8 | N#Cc1cnc(Nc2cc(NC[C@H]3CNCCO3)c(C(F)(F)F)cn2)cn1 [SRA737] + CCc1c2c(nc3ccc(O)cc13)-c1cc3c(c(=O)n1C2)COC(=O)[C@]3(O)CC [SN-38] (first compound max 10 µM, 7x7, partner max 0.3 µM) | 0.75 | 0.77 | 0.664 | 0.832 | 0.8 | 0.769 | 0.823 | 0.906 | 0.942 | 0.682 | 0.967 | 0.991 | 0.893 | 0.768 | 0.994 | 0.0231 | 0.0148 | 0.0316 | -0.0351 | -0.0867
9 | N#Cc1cnc(Nc2cc(NC[C@H]3CNCCO3)c(C(F)(F)F)cn2)cn1 [SRA737] + Nc1ccn([C@@H]2O[C@H](CO)[C@@H](O)C2(F)F)c(=O)n1 [Gemcitabine] (first compound max 10 µM, 7x7, partner max 0.3 µM) | 0.715 | 0.818 | 0.788 | 0.813 | 0.665 | 0.746 | 0.734 | 0.862 | 0.951 | 0.549 | 0.974 | 0.983 | 0.821 | 0.691 | 1 | 0.0032 | 0.0707 | -0.0046 | 0.0366 | -0.0356
10 | N#Cc1cnc(Nc2cc(NC[C@H]3CNCCO3)c(C(F)(F)F)cn2)cn1 [SRA737] + O=c1[nH]cc(F)c(=O)[nH]1 [5-Fluorouracil] (first compound max 10 µM, 7x7, partner max 20 µM) | 0.711 | 0.77 | 0.098 | 0.542 | 0.631 | 0.566 | 0.35 | 0.778 | 0.252 | 0.551 | 0.882 | 0.805 | 0.781 | 0.585 | 0.994 | 0.0119 | 0.0529 | 0.001 | -0.0068 | -0.0547
11 | C[C@@H](c1ccc2nccn2c1)n1nnc2ncc(-c3cnn(C)c3)nc21 [Savolitinib] + CC1(C)CCC(CN2CCN(c3ccc(C(=O)NS(=O)(=O)c4ccc(NCC5CCOCC5)c([N+](=O)[O-])c4)c(Oc4cnc5[nH]ccc5c4)c3)CC2)=C(c2ccc(Cl)cc2)C1 [Venetoclax] (first compound max 1 µM, 7x7, partner max 1 µM) | 0.113 | 0.157 | 0.24 | 0.237 | 0.128 | 0.384 | 0.158 | 0.129 | 0.164 | 0.106 | 0.326 | 0.372 | 0.127 | 0.172 | 0.86 | 0.0179 | -0.0121 | -0.0536 | -0.0378 | -0.0443
12 | C[C@@H](c1ccc2nccn2c1)n1nnc2ncc(-c3cnn(C)c3)nc21 [Savolitinib] + Cc1c2c(nn1C)CSCc1cc(n(C)n1)CSc1cc(c3ccccc3c1)OCCCc1c(C(=O)O)n(C)c3c-2c(Cl)ccc13 [AZD5991] (first compound max 1 µM, 7x7, partner max 1 µM) | 0.225 | 0.33 | 0.545 | 0.276 | 0.108 | 0.275 | 0.366 | 0.179 | 0.204 | 0.116 | 1 | 0.74 | 0.174 | 0.196 | 1 | 0.023 | 0.081 | -0.0099 | -0.0122 | -0.0103
